# Measured values taken from US6864249B2, “Piperidine and azetidine thrombin inhibitors” (LG Life Sciences, Ltd., priority 1998, dated 2005).
# Structures can show the parent of a compound that is named as a salt.
# Target: T1, Thrombin prepared from human plasma (Homo sapiens, UniProt P00734)
# T1 construct: Thrombin used in this test was prepared from human plasma; from tissue; host or cells: human plasma
# Assay: In vitro enzyme assay for thrombin inhibition constants (Chromozym TH substrate, Dixon plot)
# Format: biochemical
# Details: pH 7.8, room temperature
# Procedure: In vitro Enzyme Assays for Determining Inhibition Constants
# The activity of thrombin was measured spectrophotometrically using tosyl-Gly-Pro-Arg-p-nitroanilide acetate (Chromozym TH, Boehringer Mannheim) as a substrate. […] Each compound was dissolved in DMSO to make a 1 mM stock solution and dilutions were made thereof with assay buffer (0.1 M Tris HCl, 0.15 M NaCl, 0.1% polyethylene glycol 8000, pH 7.8). Different concentrations of inhibitor were mixed with […] of thrombin in 0.8 mL of the buffer. The mixture was incubated for 10 min at room temperature before adding 0.2 mL of the substrate to a final concentration of 20 μM. […] A graph for the reciprocal value of initial velocity to the inhibitor concentration was derived from progress curves by fitting the data using a linear regression program.
row,Ki [nM],SMILES
1,1.4,"CS(=O)(=O)N[C@@H](C(=O)N1CCC[C@H]1C(=O)NCc1ccc(C(=N)N)o1)C(c1ccccc1)c1ccccc1 [Example 34, N-methylsulfonyl-D-diphenylalanyl-L-prolyl-[(5-amidino-2-furanyl)methyl]amide.TFA]"
2,0.1,"N=C(N)c1ccc(CNC(=O)[C@@H]2CCCN2C(=O)[C@H](NS(=O)(=O)O)C(c2ccccc2)c2ccccc2)s1 [Example 31, N-hydroxysulfonyl-D-diphenylalanyl-L-prolyl-[(5-amidino-2-thienyl)methyl]amide.TFA]"
3,0.53,"CS(=O)(=O)N[C@@H](C(=O)N1CCC[C@H]1C(=O)NCc1ccc(/C(N)=N/N)s1)C(c1ccccc1)c1ccccc1 [Example 4, N-methylsulfonyl-D-diphenylalanyl-L-prolyl-[(5-amidrazono-2-thienyl)methyl]amide.TFA]"
4,0.021,"N=C(N)c1ccc(CNC(=O)[C@@H]2CCCN2C(=O)[C@H](NS(=O)(=O)Cc2ccccc2)C(c2ccccc2)c2ccccc2)s1 [Example 6, N-benzylsulfonyl-D-diphenylalanyl-L-prolyl-[(5-amidino-2-thienyl)methyl]amide.TFA]"
5,0.03,"N=C(N)c1ccc(CNC(=O)[C@@H]2CCCN2C(=O)[C@@H](CC2CCCCC2)NS(=O)(=O)Cc2ccccc2)s1 [Example 23, N-benzylsulfonyl-D-cyclohexylalany-L-prolyl-[(5-amidino-2-thienyl)methyl]amide.TFA]"
6,0.017,"C=CCOC(=O)N[C@@H](C(=O)N1CCC[C@H]1C(=O)NCc1ccc(C(=N)N)s1)C(c1ccccc1)c1ccccc1 [Example 21, N-allyloxycarbonyl-D-diphenylalanyl-L-prolyl-[(5-amidino-2-thienyl)methyl]amide.TFA]"
7,0.053,"CS(=O)(=O)N[C@@H](C(=O)N1CC[C@H]1C(=O)NCc1ccc(C(=N)N)s1)C(c1ccccc1)c1ccccc1 [Example 32, N-methylsulfonyl-D-diphenylalanyl-L-azetidine-2-carboxyl-[(5-amidino-2-thienyl)methyl]amide.TFA]"
8,4.7,"NCc1ccc(CNC(=O)[C@@H]2CCCN2C(=O)[C@H](NS(N)(=O)=O)C(c2ccccc2)c2ccccc2)s1 [Example 2, N-aminosulfonyl-D-diphenylalanyl-L-prolyl-[(5-aminomethyl-2-thienyl)methyl]amide.HCl]"
9,0.04,"CS(=O)(=O)N[C@@H](C(=O)N1CCC[C@H]1C(=O)NCc1cc(C(=N)N)cs1)C(c1ccccc1)c1ccccc1 [Example 12, N-methylsulfonyl-D-diphenylalanyl-L-prolyl-[(4-amidino-2-thienyl)methyl]amide.TFA]"
10,0.053,"CNS(=O)(=O)N[C@H](CC1CCCCC1)C(=O)N1CCC[C@H]1C(=O)NCc1ccc(C(=N)N)s1 [Example 25, N-methylsulfamoyl-D-cyclohexylalanyl-L-prolyl-[(5-amidino-2-thienyl)methyl]amide.TFA]"
11,0.12,"Cc1sc(CNC(=O)[C@@H]2CCCN2C(=O)[C@H](NS(C)(=O)=O)C(c2ccccc2)c2ccccc2)cc1C(=N)N [Example 33, N-methylsulfonyl-D-diphenylalanyl-L-prolyl-[(4-amidino-5-methyl-2-thienyl)methyl]amide.TFA]"
12,9.1,"NN=C(N)c1ccc(CNC(=O)[C@@H]2CCCN2C(=O)[C@H](N)C(c2ccccc2)c2ccccc2)s1 [Example 43, D-diphenylalanyl-L-prolyl-[(5-amidrazono-2-thienyl)methyl]amide.2TFA]"
13,0.065,"N=C(N)c1ccc(CNC(=O)[C@@H]2CCCN2C(=O)[C@@H](Cc2ccc(Cl)c(Cl)c2)NS(N)(=O)=O)s1 [Example 9, N-aminosulfonyl-D-3,4-dichlorophenylalanyl-L-prolyl-[(5-amidino-2-thienyl)methyl]amide.TFA]"
14,0.23,"Cn1c(CNC(=O)[C@@H]2CCCN2C(=O)[C@H](NS(C)(=O)=O)C(c2ccccc2)c2ccccc2)ccc1C(=N)N [Example 38, N-methylsulfonyl-D-diphenylalanyl-L-prolyl-[(5-amidino-1-methyl-2-pyrrolyl)methyl]amide.TFA]"
15,0.41,"CS(=O)(=O)N[C@@H](C(=O)N1CCC[C@H]1C(=O)NCc1csc(C(=N)NN)c1)C(c1ccccc1)c1ccccc1 [Example 17, N-methylsulfonyl-D-diphenylalanyl-L-prolyl-[(5-amidrazono-3-thienyl)methyl]amide.TFA]"
16,13.7,"COC(=O)N[C@@H](C(=O)N1CCC[C@H]1C(=O)NCc1csc(C(=N)N)c1)C1CCCCC1 [Example 27, N-methoxycarbonyl-D-cyclohexylglycinyl-L-prolyl-[(5-amidino-3-thienyl)methyl]amide.TFA]"
17,0.024,"N=C(N)c1ccc(CNC(=O)[C@@H]2CCCN2C(=O)[C@@H](CC2CCCCC2)NS(=O)(=O)NC2CCCCC2)s1 [Example 24, N-cyclohexylsulfamoyl-D-cyclohexylalanyl-L-prolyl-[(5-amidino-2-thienyl)methyl]amide.TFA]"
18,0.045,"CS(=O)(=O)N[C@@H](C(=O)N1CCC[C@H]1C(=O)NCc1csc(C(=N)N)c1)C(c1ccccc1)c1ccccc1 [Example 16, N-methylsulfonyl-D-diphenylalanyl-L-prolyl-[(5-amidino-3-thienyl)methyl]amide.TFA]"
19,0.073,"CS(=O)(=O)N[C@@H](C(=O)N1CCC[C@H]1C(=O)NCc1cc(CN)cs1)C(c1ccccc1)c1ccccc1 [Example 13, N-methylsulfonyl-D-diphenylalanyl-L-prolyl-[(4-aminomethyl-2-thienyl)methyl]amide.HCl]"
20,0.011,"N=C(N)c1ccc(CNC(=O)[C@@H]2CCCN2C(=O)[C@H](NS(=O)(=O)NC2CCCCC2)C(c2ccccc2)c2ccccc2)s1 [Example 20, N-cyclohexylsulfamoyl-D-diphenylalanyl-L-prolyl-[(5-amidino-2-thienyl)methyl]amide.TFA]"
21,6.21,"CS(=O)(=O)N[C@@H](C(=O)N1CCC[C@H]1C(=O)NCc1csc(CN)c1)C(c1ccccc1)c1ccccc1 [Example 18, N-methylsulfonyl-D-diphenylalanyl-L-prolyl-[(5-aminomethyl-3-thienyl)methyl]amide.TFA]"
22,0.02,"CS(=O)(=O)N[C@H](CC1CCCCC1)C(=O)N1CCC[C@H]1C(=O)NCc1ccc(C(=N)N)s1 [Example 22, N-methylsulfonyl-D-cyclohexylalanyl-L-prolyl-[(5-amidino-2-thienyl)methyl]amide.TFA]"
23,84,"CC(C)(C)OC(=O)N[C@@H](C(=O)N1CCC[C@H]1C(=O)NCc1ccc(C(N)=NN)s1)C(c1ccccc1)c1ccccc1 [Example 42, N-Boc-D-Diphenylalanyl-L-prolyl-[(5-amidrazono-2-thienyl)methyl]amide.TFA]"
24,0.003,"CN(CC(=O)O)[C@@H](C(=O)N1CCC[C@H]1C(=O)NCc1ccc(C(=N)N)s1)C(c1ccccc1)c1ccccc1 [Example 30, N-methyl-N-carboxymethyl-D-diphenylalanyl-L-prolyl-[(5-amidino-2-thienyl)methyl]amide.2TFA]"
25,4.6,"CS(=O)(=O)N[C@@H](C(=O)N1CCC[C@H]1C(=O)NCc1csc(C(=N)N)c1)C1CCCCC1 [Example 26, N-methylsulfonyl-D-cyclohexylglycinyl-L-prolyl-[(5-amidino-3-thienyl)methyl]amide.TFA]"
26,395,"CS(=O)(=O)N[C@H](Cc1ccccc1)C(=O)N1CCC[C@H]1C(=O)NCc1ccc(C(N)=NN)s1 [Example 44, N-methylsulfonyl-D-phenylalanyl-L-prolyl-[(5-amidrazono-2-thienyl)methyl]amide.TFA]"
27,0.052,"COC(=O)N[C@@H](C(=O)N1CCC[C@H]1C(=O)NCc1ccc(C(=N)N)s1)C(C1CCCCC1)C1CCCCC1 [Example 10, N-methoxycarbonyl-D-dicyclohexylalanyl-L-prolyl-[(5-amidino-2-thienyl)methyl]amide.TFA]"
28,0.12,"N=C(N)c1csc(CNC(=O)[C@@H]2CCCN2C(=O)[C@H](NS(N)(=O)=O)C(c2ccccc2)c2ccccc2)n1 [Example 37, N-aminosulfonyl-D-diphenylalanyl-L-prolyl-[(4-amidino-2-thiazolyl)methyl]amide.TFA]"

row,SMILES,Ki [nM]
1,"CC(C)(C)OC(=O)N[C@@H](C(=O)N1CCC[C@H]1C(=O)NCc1ccc(C(=N)N)s1)C(c1ccccc1)c1ccccc1 [Example 7, N-t-butoxycarbonyl-D-diphenylalanyl-L-prolyl-[(5-amidino-2-thienyl)methyl]amide.TFA]",0.007
2,"CC(C)(C)OC(=O)CN[C@@H](C(=O)N1CCC[C@H]1C(=O)NCc1ccc(C(=N)N)s1)C(c1ccccc1)c1ccccc1 [Example 28, N-(t-butoxycarbonyl)methyl-D-diphenylalanyl-L-prolyl-[(5-amidino-2-thienyl)methyl]amide.2AcOH]",0.062
